Source: patent US20250154169A1, “COMPOUNDS AND METHODS FOR MODULATING SPLICING” (REMIX THERAPEUTICS INC., priority 2021, published 2025)
Where two headings read alike, the source gives them in different places.

Key:
K562 cells = assay: Cell Titer Glo 2.0 cell viability assay, K562; type: cell-based; conditions: Homo sapiens, 72 hours incubation
Method: Compounds described herein were screened for toxicity in K562 (human chronic myelogenous leukemia) and SH-SY5Y (human neuroblastoma) cells using a Cell Titer Glo 2.0 assay.
• Promega CellTiter-Glo® 2.0 Cell Viability Assay (cat #G9241) • Corning 384-well TC-treated microplates (cat #3570)
Cells were plated at 500 cells/well (K562 cells) in 45 μL of IMDM supplemented with 10% FBS in a 384-well opaque plate. Wells containing only medium were used as a blank control. Test compounds (e.g., compounds of Formula (I) or (II)) were first serially diluted in DMSO then diluted 1:100 with EIDM+10% FBS. The final concentration of DMSO was 0.1% in each well. The cells were incubated for 72 hours at 37° C. and 5% CO2 before assaying with Cell Titer Glo 2.0 reagent.

HTT mRNA [1] = assay: Splicing RT-qPCR gene panel, HTT canonical junction (CJ) mRNA; type: cell-based, human; conditions: Homo sapiens, Tables 4A/4B, read-out: HTT (IC50, decrease in CJ mRNA, gene panel)
In short: (§1)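 A673 or K562 cells were treated 24 h at 37 °C with an 11-point 3-fold dilution series (top 10 uM, ≤0.25% DMSO). Canonical-junction mRNA was measured in lysates by one-step RT-qPCR, normalized to GAPDH, GUSB or PPIA and DMSO control (2^(−ΔΔCt)), expressed as percentage response.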

MYB mRNA = assay: Splicing RT-qPCR assay, MYB canonical (CJ) and alternative (AJ) junction mRNA; type: cell-based, human; conditions: Homo sapiens
In short: (§2)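 Compound-induced exon inclusion is tracked as an increase in AJ transcript alongside the CJ transcript. Cells (A673 normalized to PPIA; K562 to GAPDH or GUSB) are dosed 24 h with a serial dilution topping at 10 uM, ≤0.25% DMSO, then lysed and analysed by RT-qPCR in at least duplicate.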

SMN2 mRNA = assay: Splicing RT-qPCR gene panel, SMN2 canonical junction (CJ) mRNA; type: cell-based, human; conditions: Homo sapiens, Tables 4A/4B, read-out: SMN2 (IC50, decrease in CJ mRNA, gene panel)
In short: as §1

HTT mRNA [2] = assay: Splicing RT-qPCR assay, HTT canonical (CJ) and alternative (AJ) junction mRNA; type: cell-based, human; conditions: Homo sapiens
In short: as §2

Target C mRNA = assay: Splicing RT-qPCR gene panel, Target C canonical junction (CJ) mRNA; type: cell-based, human; conditions: Homo sapiens, Tables 4A/4B, read-out: Target C (IC50, decrease in CJ mRNA, gene panel)
In short: as §1

[3] = Tables 4A/4B, canonical junction qPCR panel, read-out: MYB (IC50, decrease in CJ mRNA, gene panel)
[4] = Table 3B, canonical junction mRNA, RT-qPCR, read-out: MYB CJ (IC50, decrease in CJ mRNA)
[5] = Table 3B, alternative junction mRNA, RT-qPCR, read-out: MYB AJ (AC50, increase in AJ mRNA)
[6] = Table 3B, alternative junction mRNA, read-out: HTT AJ (AC50, increase in AJ mRNA)
[7] = Table 3B, canonical junction mRNA, read-out: HTT CJ (IC50, decrease in CJ mRNA)

| IC50 (HTT mRNA [1]) [µM] | IC50 (MYB mRNA; [3]) [µM] | IC50 (SMN2 mRNA) [µM] | IC50 (Target C mRNA) [µM] | IC50 (MYB mRNA; [4]) [µM] | IC50 (HTT mRNA [2]; [7]) [µM] | SMILES | GI50 (K562 cells) [µM] | AC50 (MYB mRNA; 24 h, A673 or K562 cells, 24 hours compound treatment, RT-qPCR, read-out: MYB AJ (AC50, increase in alternative junction mRNA)) [µM] | IC50 (MYB mRNA; 24 h, A673 or K562 cells, 24 hours compound treatment, RT-qPCR, read-out: MYB CJ (IC50, decrease in canonical junction mRNA)) [µM] | IC50 (HTT mRNA [2]; 24 h, A673 or K562 cells, 24 hours compound treatment, read-out: HTT CJ (IC50, decrease in canonical junction mRNA)) [µM] | AC50 (HTT mRNA [2]; A673 or K562 cells, 24 hours compound treatment, read-out: HTT AJ (AC50, increase in alternative junction mRNA)) [µM] | AC50 (MYB mRNA; [5]) [µM] | AC50 (HTT mRNA [2]; [6]) [µM] |
| --- | --- | --- | --- | --- | --- | --- | --- | --- | --- | --- | --- | --- | --- |
| 0.1 to 1 | < 0.1 | < 0.1 | > 10 | < 0.1 | 0.1 to 1 | CCn1cc2c(N3CCNCC3)ncc(C(=O)Nc3cc(F)c4nc(C)cn4c3)c2n1 [Compound 950] | – | – | – | – | – | 0.1 to 1 | 0.1 to 1 |
| 0.1 to 1 | 0.1 to 1 | < 0.1 | 0.1 to 1 | 0.1 to 1 | 0.1 to 1 | CCn1cc2c(N3C[C@@H](C)N[C@@H](C)C3)ncc(C(=O)Nc3cc(F)c4nc(C)cn4c3)c2n1 [Compound 952] | – | – | – | – | – | 0.1 to 1 | 0.1 to 1 |
| 1 to 10 | 0.1 to 1 | < 0.1 | 1 to 10 | 0.1 to 1 | 1 to 10 | CCn1cc2c(N3CCC(NC)C3)ncc(C(=O)Nc3cc(F)c4nc(C)cn4c3)c2n1 (stereo not drawn) [Compound 953] | – | – | – | – | – | 0.1 to 1 | 1 to 10 |
| 1 to 10 | 0.1 to 1 | < 0.1 | 1 to 10 | 0.1 to 1 | 1 to 10 | CCn1cc2c(N3CCN(C)CC3)ncc(C(=O)Nc3cc(F)c4nc(C)cn4c3)c2n1 [Compound 954] | – | – | – | – | – | 0.1 to 1 | 1 to 10 |
| 0.1 to 1 | < 0.1 | < 0.1 | > 10 | < 0.1 | 0.1 to 1 | Cc1cn2cc(NC(=O)c3ccc(N4CCNCC4)c4cc(CO)nn34)cc(F)c2n1 [Compound 955] | – | – | – | – | – | < 0.1 | 1 to 10 |
| < 0.1 | < 0.1 | < 0.1 | 0.1 to 1 | < 0.1 | < 0.1 | CCNC1CCN(c2ccc(C(=O)Nc3cc(F)c4nc(C)cn4c3)n3nc(CO)cc23)C1 (stereo not drawn) [Compound 956] | – | – | – | – | – | < 0.1 | 0.1 to 1 |
| 0.1 to 1 | < 0.1 | < 0.1 | > 10 | < 0.1 | 0.1 to 1 | Cc1cn2cc(NC(=O)c3ccc(N4CC[C@@H](NC5CC5)C4)c4nc(C)nn34)cc(F)c2n1 [Compound 958] | – | – | – | – | – | < 0.1 | 1 to 10 |
| 0.1 to 1 | < 0.1 | < 0.1 | 0.1 to 1 | < 0.1 | 0.1 to 1 | CCNC1CCN(c2ccc(C(=O)Nc3cc(F)c4nc(C)cn4c3)n3nc(CC)cc23)C1 (stereo not drawn) [Compound 959] | – | – | – | – | – | < 0.1 | 0.1 to 1 |
| 0.1 to 1 | 0.1 to 1 | < 0.1 | 0.1 to 1 | 0.1 to 1 | 0.1 to 1 | CCc1cc2c(N3CCNCC3)ccc(C(=O)Nc3cc(F)c4nc(C)cn4c3)n2n1 [Compound 960] | – | – | – | – | – | 0.1 to 1 | 0.1 to 1 |
| 0.1 to 1 | < 0.1 | < 0.1 | 0.1 to 1 | < 0.1 | 0.1 to 1 | CCNC1CCN(c2ccc(C(=O)Nc3cc(F)c4nc(C)cn4c3)n3nc(C(C)O)cc23)C1 (stereo not drawn) [Compound 961] | – | – | – | – | – | < 0.1 | 0.1 to 1 |
| 1 to 10 | 0.1 to 1 | < 0.1 | > 10 | 0.1 to 1 | 1 to 10 | Cc1cn2cc(NC(=O)c3ccc(N4CC[C@@H](NC5CC5)C4)c4cc(C)nn34)cc(F)c2n1 [Compound 963] | – | – | – | – | – | 0.1 to 1 | 1 to 10 |
| < 0.1 | < 0.1 | < 0.1 | 0.1 to 1 | < 0.1 | < 0.1 | Cc1cn2cc(NC(=O)c3ccc(N4CC[C@@H](NC5CC5)C4)n4cc(C)nc34)cc(F)c2n1 [Compound 965] | – | – | – | – | – | < 0.1 | < 0.1 |
| < 0.1 | < 0.1 | < 0.1 | < 0.1 | < 0.1 | < 0.1 | Cc1cn2cc(NC(=O)c3cnc(N4CCC(NC5CC5)C4)c4cn(C)nc34)cc(F)c2n1 (stereo not drawn) [Compound 966] | – | – | – | – | – | < 0.1 | < 0.1 |
| 0.1 to 1 | < 0.1 | < 0.1 | 1 to 10 | < 0.1 | 0.1 to 1 | COc1c(NC(=O)c2ccc(N3CC[C@@H](NC4CC4)C3)c3nc(C)nn23)cn2cc(C)nc2c1F [Compound 968] | – | – | – | – | – | 0.1 to 1 | 1 to 10 |
| 1 to 10 | < 0.1 | < 0.1 | 1 to 10 | < 0.1 | 1 to 10 | CCn1cc2c(N3CCC(N)(CC)CC3)ncc(C(=O)Nc3cc(F)c4nc(C)cn4c3)c2n1 [Compound 969] | – | – | – | – | – | < 0.1 | > 10 |
| 0.1 to 1 | < 0.1 | < 0.1 | 0.1 to 1 | < 0.1 | 0.1 to 1 | Cc1cn2cc(NC(=O)c3ccc(N4C[C@@H](C)N[C@@H](C)C4)c4csnc34)cc(F)c2n1 [Compound 971] | – | – | – | – | – | < 0.1 | 0.1 to 1 |
| 1 to 10 | < 0.1 | < 0.1 | 1 to 10 | < 0.1 | 1 to 10 | Cc1cn2cc(NC(=O)c3ccc(N4CC[C@@H](NC5CC5)C4)c4csnc34)cc(F)c2n1 [Compound 973] | – | – | – | – | – | < 0.1 | 1 to 10 |
| 0.1 to 1 | < 0.1 | < 0.1 | 0.1 to 1 | < 0.1 | 0.1 to 1 | Cc1cn2cc(NC(=O)c3ccc(N4CCC(NC5CC5)CC4)c4csnc34)cc(F)c2n1 [Compound 974] | – | – | – | – | – | < 0.1 | 0.1 to 1 |
| 0.1 to 1 | < 0.1 | < 0.1 | 1 to 10 | < 0.1 | 0.1 to 1 | Cc1cn2cc(NC(=O)c3c(F)cc(N4CC[C@@H](NC5CCC5)C4)c4csnc34)cc(F)c2n1 [Compound 976] | – | – | – | – | – | < 0.1 | 1 to 10 |
| 0.1 to 1 | < 0.1 | < 0.1 | 1 to 10 | < 0.1 | 0.1 to 1 | Cc1cn2cc(NC(=O)c3ccc(N4C[C@@H](C)N[C@@H](C)C4)c4nsnc34)cc(F)c2n1 [Compound 978] | – | – | – | – | – | < 0.1 | 0.1 to 1 |
| 0.1 to 1 | < 0.1 | < 0.1 | 1 to 10 | < 0.1 | 0.1 to 1 | Cc1cn2cc(NC(=O)c3ccc(N4CCC(N(C)C)CC4)c4csnc34)cc(F)c2n1 [Compound 979] | – | – | – | – | – | < 0.1 | 0.1 to 1 |

| SMILES | IC50 (HTT mRNA [1]) [µM] | IC50 (MYB mRNA; [3]) [µM] | IC50 (SMN2 mRNA) [µM] | IC50 (Target C mRNA) [µM] | IC50 (MYB mRNA; [4]) [µM] | IC50 (HTT mRNA [2]; [7]) [µM] | GI50 (K562 cells) [µM] | AC50 (MYB mRNA; 24 h, A673 or K562 cells, 24 hours compound treatment, RT-qPCR, read-out: MYB AJ (AC50, increase in alternative junction mRNA)) [µM] | IC50 (MYB mRNA; 24 h, A673 or K562 cells, 24 hours compound treatment, RT-qPCR, read-out: MYB CJ (IC50, decrease in canonical junction mRNA)) [µM] | IC50 (HTT mRNA [2]; 24 h, A673 or K562 cells, 24 hours compound treatment, read-out: HTT CJ (IC50, decrease in canonical junction mRNA)) [µM] | AC50 (HTT mRNA [2]; A673 or K562 cells, 24 hours compound treatment, read-out: HTT AJ (AC50, increase in alternative junction mRNA)) [µM] | AC50 (MYB mRNA; [5]) [µM] | AC50 (HTT mRNA [2]; [6]) [µM] |
| --- | --- | --- | --- | --- | --- | --- | --- | --- | --- | --- | --- | --- | --- |
| Cc1cn2cc(NC(=O)c3ccc(N(C)C4CCN(C)CC4)c4cc(C)oc34)cc(F)c2n1 [Compound 200] | 1 to 10 | 1 to 10 | < 0.1 | 1 to 10 | – | – | 1 to 10 | 1 to 10 | 1 to 10 | 1 to 10 | 1 to 10 | – | – |
